According to paper PMC8318231, “Rate-of-Kill (RoK) assays to triage large compound sets for Chagas disease drug discovery: Application to GSK Chagas Box” (PLoS Neglected Tropical Diseases, 2021):

Key:
TcCYP51 = details: formerly reported; cited from earlier work
[1] = tested on: T. cruzi Tulahuen trypomastigotes; test: T. cruzi trypomastigote assay (Cell Titer-Glo viability, ATP luminescence); assay type: cell-based, Trypanosoma cruzi; details: for Trypomastigotes pIC50 48 hours: 48 hours incubation; for Trypomastigotes pIC50 48 hours / Trypomastigotes pIC50 72 hours: pIC50 = -log10 IC50 in molar units; for Trypomastigotes pIC50 72 hours: 72 hours incubation; for 48 pIC50 / 72 pIC50: trypomastigote assay; for 48 pIC50: 48 h; for 72 pIC50: 72 h
Method in brief: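 Compounds were tested in dose response or once at a final 5 μM against 5 × 10^4 trypomastigotes per well (DMEM, 2% FBS), collected on days 5–8 from LLC-MK2 infected cultures. ATP luminescence via CellTiter-Glo reports live parasites; DMSO defines 0% and cell-free wells 100% effect.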

Structure (SMILES)	CYP51 pIC50 (TcCYP51)	Trypomastigotes pIC50 48 hours [1]	Trypomastigotes pIC50 72 hours [1]	48 pIC50 ([1]; figure 1A)	72 pIC50 ([1]; figure 1A)	72 pIC50 ([1]; figure 1B)
CN1CCN(c2nc(-c3ccc(Cl)cc3)c3c(N)n(C)nc3n2)CC1 [TCMDC-143426]	< 4	< 4.3	< 4.3	< 4.3	< 4.3	< 4.3
COc1ccc(-c2cc(C)no2)cc1S(=O)(=O)Nc1ccc(F)c(Cl)c1 [TCMDC-143193]	< 4	4.8	4.4			
O=C1CN(C2CCCc3c(OCc4ccncc4)cccc32)C(=O)N1C1CCCCC1 (stereo not drawn) [TCMDC-143613]	7.7	< 4.3	< 4.3	< 4.3	< 4.3	< 4.3
CC(=O)Nc1ccc(-c2csc(NC(=O)c3ccc([N+](=O)[O-])s3)n2)cc1 [TCMDC-143164]	5.2	6.4	6.6			
CC1(Oc2cncc(Cl)c2)CCN(Cc2cc3ccccc3[nH]2)C1 (stereo not drawn) [TCMDC-143162]	5	5.6	6.1			
CC(C)Oc1ccc(C(=O)Nc2ccc(N3CCOCC3)c(Cl)c2)cc1 [TCMDC-143592]	< 4	< 4.3	< 4.3	< 4.3	< 4.3	< 4.3
O=c1[nH]c(C=Cc2cccc(OCCOc3ccccc3)c2)nc(O)c1[N+](=O)[O-] [TCMDC-143209]	< 4	< 4.3	< 4.3	< 4.3	< 4.3	< 4.3
O=C(NCC1CCCCC1)c1cnns1 [TCMDC-143612]	< 4	4.7	4.9			
Cn1c(CN2CCN(c3ncc(C(F)(F)F)cc3Cl)CC2)nc2ccncc21 [TCMDC-143276]	7.1	< 4.3	< 4.3	< 4.3	< 4.3	< 4.3
O=C(Nc1cccc(F)c1)N1CCC(Oc2cccc(-c3cccnc3)c2)CC1 [TCMDC-143555]	6.8	< 4.3	< 4.3	< 4.3	< 4.3	< 4.3
CNc1cncc(C2CCCN2C(=O)Cc2ccc3ccccc3c2)n1 (stereo not drawn) [TCMDC-143465]	7	< 4.3	< 4.3	< 4.3	< 4.3	< 4.3
N#Cc1cccc(CN2CCC(c3nc(-c4ccc(C(F)(F)F)nc4)no3)CC2)c1 [TCMDC-143179]	< 4	< 4.3	< 4.3	< 4.3	< 4.3	< 4.3
O=C1CCCCCC1(Cc1cnc[nH]1)c1ccc(Cl)cc1Cl (stereo not drawn) [TCMDC-143081]	7	< 4.3	< 4.3	< 4.3	< 4.3	< 4.3
CC(C)(C)C(O)(CCc1ccc(Cl)cc1)Cn1cncn1 (stereo not drawn) [TCMDC-143614]	6.9	< 4.3	< 4.3	< 4.3	< 4.3	< 4.3
Cc1ccccc1OCC(=O)N1CCCN(c2cccnn2)CC1 [TCMDC-143495]	7.1	< 4.3	< 4.3	< 4.3	< 4.3	< 4.3
COc1ccc2nc(N(Cc3cccnc3)C(=O)C3CCC3)sc2c1 [TCMDC-143437]	7.2	< 4.3	< 4.3	< 4.3	< 4.3	< 4.3

Structure (SMILES)	CYP51 pIC50 (TcCYP51)	Trypomastigotes pIC50 48 hours [1]	Trypomastigotes pIC50 72 hours [1]	48 pIC50 ([1]; figure 1A)	72 pIC50 ([1]; figure 1A)	72 pIC50 ([1]; figure 1B)
Cc1cc(C#N)c([N+](=O)[O-])cc1Br [TCMDC-143541]	5.1	5.8	5.5			
O=C(NCCNc1noc(-c2ccc([N+](=O)[O-])cc2)n1)c1ccc(Cl)cc1 [TCMDC-143241]	< 4	5.4	5.5			
O=C(NCc1nnc2n1CCCCC2)c1ccc(-c2ccc(F)cc2)o1 [TCMDC-143446]	4.1	< 4.3	4.7			
CN(C)CCN(C)Cc1ccc(F)cc1NS(=O)(=O)c1ccc(Cl)c(Cl)c1 [TCMDC-143118]	< 4	5.9	5.9	5.9	5.9	5.9
O=C(CCCn1cnc([N+](=O)[O-])n1)Nc1cccc(Cl)c1 [TCMDC-143186]	4.3	6	5.9			
Cc1cc(C)c(C#N)c(SCC(=O)c2ccc3c(c2)OCO3)n1 [TCMDC-143625]	< 4	5.7	5.5			
Cn1nc([N+](=O)[O-])nc1N1CCCCC1 [TCMDC-143088]	< 4	< 4.3	< 4.3	< 4.3	< 4.3	< 4.3
Cc1ccc(CNC2CCN(C[C@@H]3Cn4c(=O)ccc5ccc(=O)n3c54)CC2)cc1F [TCMDC-143403]	< 4	< 4.3	< 4.3	< 4.3	< 4.3	< 4.3
O=C(NCCc1nc(-c2ccc(F)c(F)c2)n[nH]1)C1CCCCC1 [TCMDC-143466]	4.6	< 4.3	4.5			
O=C(COc1ncnc2cc([N+](=O)[O-])ccc12)NC(=O)NC1CCCCC1 [TCMDC-143564]	< 4	5.7	5.9			
COc1ccc2ncc(F)c(NC(=O)[C@]3(O)CC[C@@H](NCc4ccc5c(c4)OCCO5)CC3)c2n1.Cl [TCMDC-143507]	4.2	4.4	4.4	4.4	4.4	4.4
O=S(=O)(c1ccccc1C(F)(F)F)N1CCN(Cc2ccc(-n3ccnc3)cc2)CC1 [TCMDC-143161]	7	< 4.3	< 4.3	< 4.3	< 4.3	< 4.3
Clc1ccc(CN2CCN(C3=NCCN3)CC2)cc1Cl.I.I [TCMDC-143605]	< 4	5.6	5.3			
O=C(c1cc2cc(Cl)ccc2[nH]1)N1CCCCC1c1cccnc1 (stereo not drawn) [TCMDC-143159]	7.2	4.5	4.4			
O=C(NCC(c1cccnc1)N1CCc2ccccc2C1)C(=O)Nc1cccc(Cl)c1 (stereo not drawn) [TCMDC-143329]	7.2	4.8	4.8	4.8	4.8	4.8
